The IC50 is the concentration that inhibits the measured activity by half.

The values that follow come from patent publication US12583815B2, “Inhibitors of YAP/TAZ-TEAD oncoproteins, synthesis and use thereof” (BRIDGENE BIOSCIENCES, INC., priority 2020, dated 2026).

This experiment deals with T1, TEAD1 (Homo sapiens, UniProt P28347).
T1 construct: endogenous in cells; host or cells: MCF-7
T1 sequence (P28347 whole entry): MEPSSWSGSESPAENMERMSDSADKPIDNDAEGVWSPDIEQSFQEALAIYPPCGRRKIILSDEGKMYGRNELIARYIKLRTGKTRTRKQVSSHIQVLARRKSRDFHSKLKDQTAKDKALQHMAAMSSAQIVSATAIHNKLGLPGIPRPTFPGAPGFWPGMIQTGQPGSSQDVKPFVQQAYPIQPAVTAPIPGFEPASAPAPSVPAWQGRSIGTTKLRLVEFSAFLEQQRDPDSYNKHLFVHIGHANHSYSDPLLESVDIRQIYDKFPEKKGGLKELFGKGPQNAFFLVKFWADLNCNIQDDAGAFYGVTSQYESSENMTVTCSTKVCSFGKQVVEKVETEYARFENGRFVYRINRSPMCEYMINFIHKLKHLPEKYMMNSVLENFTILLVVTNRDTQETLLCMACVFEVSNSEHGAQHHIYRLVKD
As to the kind of experiment: TEAD1-Luciferase reporter assay (MCF-7 cell-based TEAD1-Luc assay). As to conditions: cells treated with compound overnight, luciferase chemiluminescence readout. As to the method: TEAD1-Luciferase Reporter Assay to Characterize the Pharmacological Properties of the Tead1 Covalent Inhibitors
FIG. 1 is a schematic illustration of the mechanism of TEAD1 inhibition by the disclosed compounds, which is the theoretical basis for the development of a TEAD-YAP/TAZ cell-based functional assay to characterize the pharmacological properties of the synthesized inhibitor compounds. The MCF-7 cell-based TEAD1-Luc assay for the IC50 measurement was performed as below. Compounds 2, 4, 5, and 7, representing different chemical scaffolds, were characterized. About 200 μL of culture medium was placed in each of the 10^4 cell/well in a 96-well plate. The next day the cells were treated with the synthesized compounds for overnight. The luciferase activity was measured with a chemiluminescent assay kit. Specifically, the plate was equilibrated at room temperature. […] and 50 μL of the medium was left inside. To each well was added 50 μL Luciferase reagents. The plates were gently rocked for more than about 15 minutes at room temperature. The luminescence signal was then read and recorded. Table 2 below summarizes the measured IC50 values for the disclosed compounds.
(In general: Reporter assays use an easily measured gene product as a stand-in for the process of interest.)
Consider `C=CC(=O)Nc1ccc2c(c1)CCN(CCCCC)C2=O` [Compound 50, N-(1-oxo-2-pentyl-1,2,3,4-tetrahydroisoquinolin-6-yl)acrylamide], for which the half-inhibitory concentration (IC50) lay within 100 to 5000 nM.

Turning to `C=CC(=O)Nc1ccc(-c2cc(C(F)(F)F)ccn2)cc1` [Compound 51, N-(4-(4-(trifluoromethyl)pyridin-2-yl)phenyl)acrylamide], the half-inhibitory concentration (IC50) was in the range of 100 to 5000 nM.

In the case of `C=CC(=O)Nc1ccc(-c2cncc(C(F)(F)F)c2)cc1` [Compound 52, N-(4-(5-(trifluoromethyl)pyridin-3-yl)phenyl)acrylamide], the IC50 is at most 100 nM.

For `C=CC(=O)Nc1ccc(-c2cc(C(F)(F)F)cnn2)cc1` [Compound 53, N-(4-(5-(trifluoromethyl)pyridazin-3-yl)phenyl)acrylamide], the 50% inhibitory concentration (IC50) is 100 to 5000 nM.

In the case of `C=CC(=O)Nc1ccc(-c2cc(C(F)(F)F)sn2)cc1` [Compound 54, N-(4-(5-(trifluoromethyl)isothiazol-3-yl)phenyl)acrylamide], the half-inhibitory concentration (IC50) is at most 100 nM.

Take `C=CC(=O)Nc1ccc(-c2ccn(CC(F)(F)F)n2)cc1` [Compound 55, N-(4-(1-(2,2,2-trifluoroethyl)-1H-pyrazol-3-yl)phenyl)acrylamide]: the IC50 lay in the range of 100 to 5000 nM.

Turning to `C=CC(=O)N1CC(Oc2ccc(C(F)(F)F)cc2)C1` [Compound 56, 1-(3-(4-(trifluoromethyl)phenoxy)azetidin-1-yl)prop-2-en-1-one], the IC50 was in the range of 100 to 5000 nM.

Take `C=CC(=O)NC1CC(COc2cccc(C(F)(F)F)c2)C1` (stereo not drawn) [Compound 58, N-(3-((3-(trifluoromethyl)phenoxy)methyl)cyclobutyl)acrylamide]: the half-maximal inhibitory concentration (IC50) is at most 100 nM.

In the case of `C=CC(=O)N1CC(Cc2ccc(C(F)(F)F)cc2)C1` [Compound 59, 1-(3-(4-(trifluoromethyl)benzyl)azetidin-1-yl)prop-2-en-1-one], the 50% inhibitory concentration (IC50) is 100 to 5000 nM.

Consider `C=CC(=O)N1CC(NCc2cccc(C(F)(F)F)c2)C1` [Compound 60, 1-(3-((3-(trifluoromethyl)benzyl)amino)azetidin-1-yl)prop-2-en-1-one], for which the half-maximal inhibitory concentration (IC50) lay in the range of 100 to 5000 nM.

Take `C=CC(=O)NC1CC(OCc2cccc(C(F)(F)F)c2)C1` (stereo not drawn) [Compound 61, N-(3-((3-(trifluoromethyl)benzyl)oxy)cyclobutyl)acrylamide]: the half-inhibitory concentration (IC50) is at most 100 nM.

Take `C=CC(=O)NC12CC(COc3cccc(C(F)(F)F)c3)(C1)C2` [Compound 62, N-(3-((3-(trifluoromethyl)phenoxy)methyl)bicyclo[1.1.1]pentan-1-yl)acrylamide]: the concentration for half-maximal inhibition (IC50) is at most 100 nM.

Consider `C=CC(=O)NC1CC2(CC(NCc3cccc(C(F)(F)F)c3)C2)C1` (stereo not drawn) [Compound 63, N-(6-((3-(trifluoromethyl)benzyl)amino)spiro[3.3]heptan-2-yl)acrylamide], for which the half-maximal inhibitory concentration (IC50) is at most 100 nM.

Take `C=CC(=O)NC1CC2(C1)CC(Oc1cccc(C(F)(F)F)c1)C2` (stereo not drawn) [Compound 64, N-(6-(3-(trifluoromethyl)phenoxy)spiro[3.3]heptan-2-yl)acrylamide]: the concentration for half-maximal inhibition (IC50) is at least 5000 nM.

For `C=CC(=O)Nc1ccc(-c2cc(C(C)(C)C)on2)cc1` [Compound 65, N-(4-(5-(tert-butyl)isoxazol-3-yl)phenyl)acrylamide], the half-inhibitory concentration (IC50) lay in the range of 100 to 5000 nM.
